Target: PIK3CD (Human) (UniProt O00329)
Assay: Inhibition of PIK3CD Kinase Activity

PIK3CD (Human), sequence (O00329 whole entry, looked up): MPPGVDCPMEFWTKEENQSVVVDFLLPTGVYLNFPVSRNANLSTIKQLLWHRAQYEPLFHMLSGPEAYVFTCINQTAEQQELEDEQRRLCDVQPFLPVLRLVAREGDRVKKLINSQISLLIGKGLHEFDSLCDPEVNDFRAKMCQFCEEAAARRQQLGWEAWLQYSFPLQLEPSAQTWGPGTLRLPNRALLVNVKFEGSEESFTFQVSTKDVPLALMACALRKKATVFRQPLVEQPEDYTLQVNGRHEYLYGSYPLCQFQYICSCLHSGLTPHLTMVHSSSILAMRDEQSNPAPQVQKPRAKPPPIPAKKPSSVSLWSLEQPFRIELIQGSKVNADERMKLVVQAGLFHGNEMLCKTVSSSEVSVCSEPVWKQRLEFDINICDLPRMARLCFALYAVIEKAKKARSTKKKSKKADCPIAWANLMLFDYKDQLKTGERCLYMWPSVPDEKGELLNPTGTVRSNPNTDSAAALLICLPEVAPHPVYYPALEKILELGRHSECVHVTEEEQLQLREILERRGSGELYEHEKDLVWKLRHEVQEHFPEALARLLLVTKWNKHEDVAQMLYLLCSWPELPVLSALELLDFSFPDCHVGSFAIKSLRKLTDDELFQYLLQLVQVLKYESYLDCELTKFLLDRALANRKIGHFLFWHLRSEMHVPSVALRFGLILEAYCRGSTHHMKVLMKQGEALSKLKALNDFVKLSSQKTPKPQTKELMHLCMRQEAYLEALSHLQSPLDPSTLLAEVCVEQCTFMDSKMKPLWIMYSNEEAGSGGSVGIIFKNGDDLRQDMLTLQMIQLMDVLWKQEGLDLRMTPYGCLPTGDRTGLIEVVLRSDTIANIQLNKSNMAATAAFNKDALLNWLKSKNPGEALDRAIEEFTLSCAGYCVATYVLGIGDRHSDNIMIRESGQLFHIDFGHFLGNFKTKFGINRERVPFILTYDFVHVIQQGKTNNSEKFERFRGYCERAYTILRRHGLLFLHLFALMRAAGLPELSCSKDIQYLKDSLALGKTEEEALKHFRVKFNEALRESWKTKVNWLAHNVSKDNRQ

IC50: < 500 nM
Compound: CCn1c(CN2CC(NC(C)(C)C(N)=O)C2)nc2c(N3CCOCC3)nc(-c3cccc4[nH]ccc34)nc21
